Test system: not given
Test: not given
Settings: not given

Structure (SMILES) | melting point [°C]
COc1c2occc2c(NC(=O)C(C)C)c2ccc(=O)oc12 [3k, N-(9-Methoxy-7-oxo-7H-furo[3,2-g]chromen-4-yl)isobutyramide] | 234 to 235
COc1c2occc2c(NCc2ccccc2)c2ccc(=O)oc12 [4a, 4-(Benzylamino)-9-methoxy-7H-furo[3,2-g]chromen-7-one] | 168 to 169
COc1c2occc2c(NC(C)=O)c2ccc(=O)oc12 [3i, N-(9-Methoxy-7-oxo-7H-furo[3,2-g]chromen-4-yl)acetamide] | 251 to 252
COc1c2c(c(NC(=S)Nc3ccccc3)c3ccoc13)C(OC)CC(=O)O2 (stereo not drawn) [compound 6, 1-(5,9-Dimethoxy-7-oxo-6,7-dihydro-5H-furo[3,2-g]chromen-4-yl)-3-phenylthiourea] | 191 to 192

Test system: T47-D
Test: MTT cytotoxicity, 48 h, without UVA
Format: cell-based, human
Settings: Homo sapiens, T47D, light or radiation study; 48 h; without UVA; I = %inhibition lower than 50%; read-out: Cytotoxic activity T47-D %Inhibition
Experimental: Additionally, the cytotoxicity towards normal cells, human embryonal lung fibroblast cell MRC-5 was also assessed.
(§1) MDA-MB-231 (triple-negative breast cancer) was obtained from M.D. Anderson Cancer Center, Houston, TX, USA). T47-D (hormone-dependent breast carcinoma), SK-BR-3 (human HER2+ breast cancer), and MRC-5 (normal embryonic lung fibroblast) were obtained from the American Type Culture Collection (ATCC, Manassas, VA, USA).
(§2) The cytotoxic effect of tested compounds was evaluated in two breast cancer cell lines, MDA-MB-231 and T47-D. Number of survival cells after exposure to tested compounds for 48 h was determined by MTT assay, as previously described.

Structure (SMILES) | inhibition at 50 µg/mL [%]
COc1c2occc2c(NC(=O)C(C)C)c2ccc(=O)oc12 [3k, N-(9-Methoxy-7-oxo-7H-furo[3,2-g]chromen-4-yl)isobutyramide] | 36
COc1c2occc2c(NC(C)=O)c2ccc(=O)oc12 [3i, N-(9-Methoxy-7-oxo-7H-furo[3,2-g]chromen-4-yl)acetamide] | 20

Same assay, conditions: Homo sapiens, T47D, light or radiation study; hormone-dependent breast cancer; 48 h; without UVA; read-out: Cytotoxic activity T47-D IC50

Structure (SMILES) | IC50 [µM]
COc1c2occc2c(NCc2ccccc2)c2ccc(=O)oc12 [4a, 4-(Benzylamino)-9-methoxy-7H-furo[3,2-g]chromen-7-one] | 31.1 ± 1.54
COc1c2c(c(NC(=S)Nc3ccccc3)c3ccoc13)C(OC)CC(=O)O2 (stereo not drawn) [compound 6, 1-(5,9-Dimethoxy-7-oxo-6,7-dihydro-5H-furo[3,2-g]chromen-4-yl)-3-phenylthiourea] | > 100

Same assay, conditions: SI = IC50 for MRC-5/IC50 for T47-D

Structure (SMILES) | Selectivity Index (SI)
COc1c2occc2c(NCc2ccccc2)c2ccc(=O)oc12 [4a, 4-(Benzylamino)-9-methoxy-7H-furo[3,2-g]chromen-7-one] | > 5.0

Test system: differentiated HL-60 cells
Test: Inhibition of TPA-induced superoxide anion radical generation (HL-60 Antioxidant)
Format: cell-based, human
Settings: Homo sapiens, HL-60; screening concentration 100 µM; read-out: HL-60 Antiox. %Inh
Excerpt: Inhibition of 12-O-tetradecanoylphorbol-13-acetate (TPA)-induced superoxide anion radical generation in differentiated HL-60 cells (HL-60 Antioxidant) TPA-induced superoxide anion radical formation was detected in differentiated HL-60 cells by photometric determination of cytochrome c reduction as previously described by Gerhäuser et al., 2003.ii Superoxide dismutase (SOD;15U) was a positive control. […]

Structure (SMILES) | inhibition at 100 µM [%]
COc1c2occc2c(NC(=O)C(C)C)c2ccc(=O)oc12 [3k, N-(9-Methoxy-7-oxo-7H-furo[3,2-g]chromen-4-yl)isobutyramide] | 11
COc1c2occc2c(NCc2ccccc2)c2ccc(=O)oc12 [4a, 4-(Benzylamino)-9-methoxy-7H-furo[3,2-g]chromen-7-one] | 7
COc1c2occc2c(NC(C)=O)c2ccc(=O)oc12 [3i, N-(9-Methoxy-7-oxo-7H-furo[3,2-g]chromen-4-yl)acetamide] | 11

Same assay, conditions: screening concentration 100 µM

Structure (SMILES) | HL-60 Antiox. %Inh
COc1c2c(c(NC(=S)Nc3ccccc3)c3ccoc13)C(OC)CC(=O)O2 (stereo not drawn) [compound 6, 1-(5,9-Dimethoxy-7-oxo-6,7-dihydro-5H-furo[3,2-g]chromen-4-yl)-3-phenylthiourea] | Toxic

Test system: SK-BR-3
Test: Dark and light-activated (UVA) cytotoxicity, MTT
Format: cell-based
Settings: Homo sapiens, dark, HER2+ breast cancer

Structure (SMILES) | IC50 [µM]
COc1c2occc2c(NC(=O)C(C)C)c2ccc(=O)oc12 [3k, N-(9-Methoxy-7-oxo-7H-furo[3,2-g]chromen-4-yl)isobutyramide] | > 100

Biological target: T1, aromatase (CYP19) (Homo sapiens, UniProt P11511)
T1 sequence (P11511 1-503): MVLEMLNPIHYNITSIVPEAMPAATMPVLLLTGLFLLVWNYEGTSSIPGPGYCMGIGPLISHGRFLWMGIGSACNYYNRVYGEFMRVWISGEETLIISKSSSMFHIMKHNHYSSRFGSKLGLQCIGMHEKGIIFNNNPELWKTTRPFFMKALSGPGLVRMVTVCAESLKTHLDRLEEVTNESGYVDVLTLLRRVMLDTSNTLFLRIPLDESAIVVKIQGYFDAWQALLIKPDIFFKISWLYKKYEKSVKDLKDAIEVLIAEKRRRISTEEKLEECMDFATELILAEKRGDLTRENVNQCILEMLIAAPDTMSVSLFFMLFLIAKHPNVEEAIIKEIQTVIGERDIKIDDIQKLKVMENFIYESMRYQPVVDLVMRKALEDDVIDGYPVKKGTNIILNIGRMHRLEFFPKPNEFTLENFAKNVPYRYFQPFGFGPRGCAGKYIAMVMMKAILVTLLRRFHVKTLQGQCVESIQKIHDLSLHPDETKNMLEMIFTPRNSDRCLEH
Test: Inhibition of aromatase (AIA)
Format: biochemical
Settings: at 12.5 µM; I = %inhibition lower than 50%; read-out: Aromatase inhibitory activity %Inhibition
Experimental: Estrogens are the critical risk factor for breast cancer initiation and progression and the aromatase enzyme involves in the final step conversion of androgens to estrogens[21],[22]. […] In this study, the synthesized psoralen derivatives were also tested for aromatase inhibitory activity (AIA) which is considered to be one of chemopreventive mechanisms for hormone dependent breast cancer.
Inhibition of the aromatase was performed using the method designed by Stresser et al.[39].

Structure (SMILES) | inhibition at 12.5 µM [%]
COc1c2occc2c(NC(=O)C(C)C)c2ccc(=O)oc12 [3k, N-(9-Methoxy-7-oxo-7H-furo[3,2-g]chromen-4-yl)isobutyramide] | 8
COc1c2occc2c(NCc2ccccc2)c2ccc(=O)oc12 [4a, 4-(Benzylamino)-9-methoxy-7H-furo[3,2-g]chromen-7-one] | 46
COc1c2occc2c(NC(C)=O)c2ccc(=O)oc12 [3i, N-(9-Methoxy-7-oxo-7H-furo[3,2-g]chromen-4-yl)acetamide] | 7
COc1c2c(c(NC(=S)Nc3ccccc3)c3ccoc13)C(OC)CC(=O)O2 (stereo not drawn) [compound 6, 1-(5,9-Dimethoxy-7-oxo-6,7-dihydro-5H-furo[3,2-g]chromen-4-yl)-3-phenylthiourea] | 18

Test system: MDA-MB-231
Test: Dark and light-activated (UVA) cytotoxicity, MTT
Format: cell-based
Settings: Homo sapiens, MDA-MB-231, light or radiation study; irradiation with UVA (2.0 J cm^−2); HER2− breast cancer
Experimental: (§3) The selected compounds were screened for their IC50 values against both HER2+ breast cancer (SK-BR-3), and HER2− breast cancer (MDA-MB-231) in both dark and light-activated conditions (Table 2). Additionally, a negative control study was also performed with SK-BR-3 and MDA-MB-231 cells in the absence of tested compound under UVA irradiation (See Fig S7., Supporting Information).
(§4) SK-BR-3 and MDA-MB-231 cells were seeded into 96-well cell culture plates at 5 × 10^3 cells/well and incubated for 24 h at 37 °C under 5% CO2. After that, the cells were treated with 50 μM of psoralen derivatives in DMEM with 10% FBS and the cells were continued incubation for another 4 h. After incubation, the cells were washed with PBS (3 times) and then irradiated by a 365 nm lamp with the light intensity of 2.0 J cm^−2 for 12.5 min before re-incubation for another 72 h. After incubation, the cell was treated with methylthiazolyldiphenyl-tetrazolium bromide (MTT reagent 200 μL, 0.5 mg mL^−1, Sigma-Aldrich) for 2 h. After reagent removal, DMSO was added to dissolve the formazan product and the cell viabilities were determined through UV–Vis absorption of the resulting formazan at wavelength 560 nm using a microplate reader (BMG Labtech/SPECTROstar Nano). The cell morphology images were captured by using a light microscope (Microscope Nikon, inverted digital) at 20X magnification prior to treating with MTT reagent.

Structure (SMILES) | IC50 [µM]
COc1c2occc2c(NC(=O)C(C)C)c2ccc(=O)oc12 [3k, N-(9-Methoxy-7-oxo-7H-furo[3,2-g]chromen-4-yl)isobutyramide] | > 100

Test system: not listed separately
Test: Scavenging of diphenyl-picryl-hydrazyl radicals (DPPH)
Settings: read-out: DPPH IC50
Excerpt: 1. Chemoprevention activity

Structure (SMILES) | IC50 [µM]
COc1c2occc2c(NCc2ccccc2)c2ccc(=O)oc12 [4a, 4-(Benzylamino)-9-methoxy-7H-furo[3,2-g]chromen-7-one] | 145
COc1c2c(c(NC(=S)Nc3ccccc3)c3ccoc13)C(OC)CC(=O)O2 (stereo not drawn) [compound 6, 1-(5,9-Dimethoxy-7-oxo-6,7-dihydro-5H-furo[3,2-g]chromen-4-yl)-3-phenylthiourea] | 52.6

Same assay, conditions: screening concentration 250 µM

Structure (SMILES) | DPPH %Inh [%]
COc1c2occc2c(NC(=O)C(C)C)c2ccc(=O)oc12 [3k, N-(9-Methoxy-7-oxo-7H-furo[3,2-g]chromen-4-yl)isobutyramide] | 2
COc1c2occc2c(NC(C)=O)c2ccc(=O)oc12 [3i, N-(9-Methoxy-7-oxo-7H-furo[3,2-g]chromen-4-yl)acetamide] | 1

Test system: SK-BR-3
Test: Dark and light-activated (UVA) cytotoxicity, MTT
Format: cell-based, human
Settings: Homo sapiens, SK-BR-3, light or radiation study; irradiation with UVA (2.0 J cm^−2); HER2+ breast cancer
Experimental: as §3, §4

Structure (SMILES) | IC50 [µM]
COc1c2occc2c(NC(=O)C(C)C)c2ccc(=O)oc12 [3k, N-(9-Methoxy-7-oxo-7H-furo[3,2-g]chromen-4-yl)isobutyramide] | 66.1 ± 5.21

Test system: MDA-MB-231
Test: Dark and light-activated (UVA) cytotoxicity, MTT
Format: cell-based
Settings: Homo sapiens, dark, HER2− breast cancer

Structure (SMILES) | IC50 [µM]
COc1c2occc2c(NC(=O)C(C)C)c2ccc(=O)oc12 [3k, N-(9-Methoxy-7-oxo-7H-furo[3,2-g]chromen-4-yl)isobutyramide] | > 100

Test system: MDA-MB-231
Test: MTT cytotoxicity, 48 h, without UVA
Format: cell-based
Settings: Homo sapiens, MDA-MB-231, light or radiation study, I = %inhibition lower than 50%, read-out: Cytotoxic activity MDA-MB-231 %Inhibition
Experimental: as §1, §2

Structure (SMILES) | inhibition at 50 µg/mL [%]
COc1c2occc2c(NC(=O)C(C)C)c2ccc(=O)oc12 [3k, N-(9-Methoxy-7-oxo-7H-furo[3,2-g]chromen-4-yl)isobutyramide] | 4
COc1c2occc2c(NC(C)=O)c2ccc(=O)oc12 [3i, N-(9-Methoxy-7-oxo-7H-furo[3,2-g]chromen-4-yl)acetamide] | 6

Same assay, conditions: Homo sapiens, MDA-MB-231, light or radiation study, hormone-independent breast cancer, read-out: Cytotoxic activity MDA-MB-231 IC50

Structure (SMILES) | IC50 [µM]
COc1c2occc2c(NCc2ccccc2)c2ccc(=O)oc12 [4a, 4-(Benzylamino)-9-methoxy-7H-furo[3,2-g]chromen-7-one] | > 100
COc1c2c(c(NC(=S)Nc3ccccc3)c3ccoc13)C(OC)CC(=O)O2 (stereo not drawn) [compound 6, 1-(5,9-Dimethoxy-7-oxo-6,7-dihydro-5H-furo[3,2-g]chromen-4-yl)-3-phenylthiourea] | 91.9 ± 4.49

Biological target: not listed separately
Test: Inhibition of superoxide radical formation by xanthine/xanthine oxidase (XXO)
Format: biochemical
Settings: read-out: XXO IC50
Excerpt: 1. […]

Structure (SMILES) | IC50 [µM]
COc1c2occc2c(NC(=O)C(C)C)c2ccc(=O)oc12 [3k, N-(9-Methoxy-7-oxo-7H-furo[3,2-g]chromen-4-yl)isobutyramide] | 394

Same assay, conditions: screening concentration 500 µM

Structure (SMILES) | XXO %Inh [%]
COc1c2occc2c(NCc2ccccc2)c2ccc(=O)oc12 [4a, 4-(Benzylamino)-9-methoxy-7H-furo[3,2-g]chromen-7-one] | 34
COc1c2c(c(NC(=S)Nc3ccccc3)c3ccoc13)C(OC)CC(=O)O2 (stereo not drawn) [compound 6, 1-(5,9-Dimethoxy-7-oxo-6,7-dihydro-5H-furo[3,2-g]chromen-4-yl)-3-phenylthiourea] | 24

Biological target: xanthine oxidase (Homo sapiens, UniProt P47989)
Test: Inhibition of xanthine oxidase (IXO)
Format: biochemical
Settings: not given
Experimental: 1. […]
Inhibition of xanthine oxidase (IXO)
Xanthine oxidase activity was determined by quantifying the amount of uric acid produced
from xanthine. […]

xanthine oxidase, sequence (P47989 whole entry, species assumed): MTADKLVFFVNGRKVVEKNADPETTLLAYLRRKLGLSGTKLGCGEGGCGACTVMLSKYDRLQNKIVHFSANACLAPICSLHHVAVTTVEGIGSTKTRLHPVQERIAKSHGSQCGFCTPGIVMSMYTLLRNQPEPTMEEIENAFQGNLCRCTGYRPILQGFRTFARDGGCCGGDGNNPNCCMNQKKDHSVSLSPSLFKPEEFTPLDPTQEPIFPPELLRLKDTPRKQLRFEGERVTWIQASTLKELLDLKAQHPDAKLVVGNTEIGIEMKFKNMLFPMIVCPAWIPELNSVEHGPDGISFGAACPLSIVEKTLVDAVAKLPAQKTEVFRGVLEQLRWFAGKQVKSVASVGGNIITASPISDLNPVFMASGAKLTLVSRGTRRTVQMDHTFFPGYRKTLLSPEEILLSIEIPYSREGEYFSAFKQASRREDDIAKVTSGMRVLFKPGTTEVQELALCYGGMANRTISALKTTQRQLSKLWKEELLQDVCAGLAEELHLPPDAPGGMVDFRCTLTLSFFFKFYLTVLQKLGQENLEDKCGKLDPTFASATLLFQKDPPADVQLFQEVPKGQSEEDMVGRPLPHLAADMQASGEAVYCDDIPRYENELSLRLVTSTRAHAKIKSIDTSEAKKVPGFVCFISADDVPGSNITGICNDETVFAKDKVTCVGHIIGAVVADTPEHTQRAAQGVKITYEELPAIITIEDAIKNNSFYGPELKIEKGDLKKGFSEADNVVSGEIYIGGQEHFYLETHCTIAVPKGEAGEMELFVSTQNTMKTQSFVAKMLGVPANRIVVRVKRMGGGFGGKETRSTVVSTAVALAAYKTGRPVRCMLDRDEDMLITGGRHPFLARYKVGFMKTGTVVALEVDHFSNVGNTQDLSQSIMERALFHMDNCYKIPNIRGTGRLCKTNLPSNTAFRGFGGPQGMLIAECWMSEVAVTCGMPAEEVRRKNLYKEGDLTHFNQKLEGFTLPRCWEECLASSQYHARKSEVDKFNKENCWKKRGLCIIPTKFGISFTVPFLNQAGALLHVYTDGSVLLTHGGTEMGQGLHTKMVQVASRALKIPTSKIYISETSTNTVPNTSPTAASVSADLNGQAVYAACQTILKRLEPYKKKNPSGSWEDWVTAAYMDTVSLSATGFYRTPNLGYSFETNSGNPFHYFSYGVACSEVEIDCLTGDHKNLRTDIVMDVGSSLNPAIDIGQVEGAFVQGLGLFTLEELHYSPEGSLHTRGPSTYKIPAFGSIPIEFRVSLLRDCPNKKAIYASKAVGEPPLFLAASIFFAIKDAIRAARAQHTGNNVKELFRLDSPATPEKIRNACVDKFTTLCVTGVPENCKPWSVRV

Structure (SMILES) | IC50 [µM]
COc1c2occc2c(NCc2ccccc2)c2ccc(=O)oc12 [4a, 4-(Benzylamino)-9-methoxy-7H-furo[3,2-g]chromen-7-one] | 27.4

Same assay, conditions: screening concentration 500 µM; read-out: IXO %Inh

Structure (SMILES) | inhibition at 500 µM [%]
COc1c2occc2c(NC(=O)C(C)C)c2ccc(=O)oc12 [3k, N-(9-Methoxy-7-oxo-7H-furo[3,2-g]chromen-4-yl)isobutyramide] | 17
COc1c2occc2c(NC(C)=O)c2ccc(=O)oc12 [3i, N-(9-Methoxy-7-oxo-7H-furo[3,2-g]chromen-4-yl)acetamide] | 47
COc1c2c(c(NC(=S)Nc3ccccc3)c3ccoc13)C(OC)CC(=O)O2 (stereo not drawn) [compound 6, 1-(5,9-Dimethoxy-7-oxo-6,7-dihydro-5H-furo[3,2-g]chromen-4-yl)-3-phenylthiourea] | 48

From PMC9356065, “Novel psoralen derivatives as anti-breast cancer agents and their light-activated cytotoxicity against HER2 positive breast cancer cells” (Scientific Reports, 2022)
